Patent US10576062B2, “Carbamoyloxymethyl triazole cyclohexyl acids as LPA antagonists” (Bristol-Myers Squibb Company, priority 2016, dated 2020)

Target: T1, human LPA1 (Homo sapiens, UniProt Q92633)
T1 construct: expressed in transfected cells; host or cells: Chinese hamster ovary (CHO) cells
Assay: LPA1 functional antagonist assay (LPA-induced calcium flux)
Format: cell-based
Settings: human LPA1; read-out: hLPA1 IC50
Method in brief: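 CHO cells overexpressing human LPA1, loaded with calcium dye 30 min at 37° C, were preincubated 20 min at room temperature with compound (0.08 nM–5 μM, 0.5% DMSO) in HBSS/20 mM HEPES/0.1% fatty acid-free BSA.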

T1 sequence (Q92633 whole entry): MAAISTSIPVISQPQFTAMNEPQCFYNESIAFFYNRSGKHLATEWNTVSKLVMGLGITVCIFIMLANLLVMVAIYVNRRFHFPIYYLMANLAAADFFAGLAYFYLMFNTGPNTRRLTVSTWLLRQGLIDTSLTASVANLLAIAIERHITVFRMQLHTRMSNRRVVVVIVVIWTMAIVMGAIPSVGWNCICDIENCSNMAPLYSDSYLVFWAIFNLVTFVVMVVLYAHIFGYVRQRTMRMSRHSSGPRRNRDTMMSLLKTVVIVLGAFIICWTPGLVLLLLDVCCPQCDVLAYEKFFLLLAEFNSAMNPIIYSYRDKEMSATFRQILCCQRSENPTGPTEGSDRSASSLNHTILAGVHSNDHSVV

Q: `Cc1nc(-c2nnn(C)c2COC(=O)N2CC3(CCCC3)C2)ccc1O[C@H]1CCC[C@H](C(=O)O)C1` [Example 159, (1S,3S)-3-((6-(5-(((2-azaspiro[3.4]octane-2-carbonyl)oxy)methyl)-1-methyl-1H-1,2,3-triazol-4-yl)-2-methylpyridin-3-yl)oxy)cyclohexane-1-carboxylic acid] was tested. Which IC50 did it give?
A: Its IC50 is 162 nM.

Q: With `Cc1nc(-c2nnn(C)c2COC(=O)N(C)C2CC(C)(C)C2)ccc1O[C@H]1CCC[C@@H](C(=O)O)C1` [Example 160, (1R,3S)-3-((6-(5-((((3,3-dimethylcyclobutyl)(methyl)carbamoyl)oxy)methyl)-1-methyl-1H-1,2,3-triazol-4-yl)-2-methylpyridin-3-yl)oxy)cyclohexane-1-carboxylic acid] as the compound, how does the IC50 read?
A: The IC50 was 61 nM.

Q: Which IC50 does the source give for `Cc1nc(-c2nnn(C)c2COC(=O)N(C)CCC2CC2)ccc1O[C@H]1CCC[C@H](C(=O)O)C1` [Example 162, (1S,3S)-3-((6-(5-((((2-cyclopropylethyl)(methyl)carbamoyl)oxy)methyl)-1-methyl-1H-1,2,3-triazol-4-yl)-2-methylpyridin-3-yl)oxy)cyclohexane-1-carboxylic acid] here?
A: Its IC50 is 34 nM.

Q: `Cc1nc(-c2nnn(C)c2COC(=O)N2C3CCC2CC3)ccc1O[C@H]1CCC[C@H](C(=O)O)C1` [Example 167, (1S,3S)-3-((6-(5-(((-7-azabicyclo[2.2.1]heptane-7-carbonyl)oxy)methyl)-1-methyl-1H-1,2,3-triazol-4-yl)-2-methylpyridin-3-yl)oxy)cyclohexane-1-carboxylic acid] was tested. Which IC50 did it give?
A: Its IC50 is 317 nM.

Q: Which IC50 does the source give for `Cc1nc(-c2nnn(C)c2COC(=O)N(C)C2CC(C)(C)C2)ccc1O[C@H]1CCC[C@H](C(=O)O)C1` [Example 168, (1S,3S)-3-((6-(5-((((3,3-dimethyl-cyclobutyl)(methyl)carbamoyl)oxy)methyl)-1-methyl-1H-1,2,3-triazol-4-yl)-2-methylpyridin-3-yl)oxy)cyclohexane-1-carboxylic acid] here?
A: Its IC50 is 29 nM.

Q: How did the IC50 turn out when `Cc1nc(-c2nnn(C)c2COC(=O)N(C)C(C)(C)C)ccc1O[C@H]1CCC[C@H](C(=O)O)C1` [Example 170, (1S,3S)-3-((6-(5-(((tert-butyl(methyl)carbamoyl)oxy)methyl)-1-methyl-1H-1,2,3-triazol-4-yl)-2-methylpyridin-3-yl)oxy)cyclohexane-1-carboxylic acid] was run?
A: The IC50 was 183 nM.

Q: With `Cc1nc(-c2nnn(C)c2COC(=O)N2CCC3(CC2)CC3)ccc1O[C@H]1CCC[C@H](C(=O)O)C1` [Example 171, (1S,3S)-3-((6-(5-(((6-azaspiro[2.5]octane-6-carbonyl)oxy)methyl)-1-methyl-1H-1,2,3-triazol-4-yl)-2-methylpyridin-3-yl)oxy)cyclohexane-1-carboxylic acid] as the compound, how does the IC50 read?
A: The IC50 was 162 nM.

Q: How did the IC50 turn out when `CC(C)=CCN(C)C(=O)OCc1c(-c2ccc(O[C@H]3CCC[C@@H](C(=O)O)C3)c(C)n2)nnn1C` [Example 172, (1R,3S)-3-((2-methyl-6-(1-methyl-5-(((methyl(3-methylbut-2-en-1-yl)carbamoyl)oxy)methyl)-1H-1,2,3-triazol-4-yl)pyridin-3-yl)oxy)cyclohexane-1-carboxylic acid] was run?
A: Its IC50 is 312 nM.

Q: How did the IC50 turn out when `CCCN(C)C(=O)OCc1c(-c2ccc(O[C@H]3CCC[C@H](C(=O)O)C3)cn2)nnn1C` [Example 173, (1S,3S)-3-((6-(1-methyl-5-(((methyl(propyl)carbamoyl)oxy)methyl)-1H-1,2,3-triazol-4-yl)pyridin-3-yl)oxy)cyclohexane-1-carboxylic acid] was run?
A: The IC50 was 131 nM.

Q: How did the IC50 turn out when `CN(C(=O)OCc1c(-c2ccc(O[C@H]3CCC[C@H](C(=O)O)C3)cn2)nnn1C)C1CCC1` [Example 174, (1S,3S)-3-((6-(5-(((cyclobutyl(methyl)carbamoyl)oxy)methyl)-1-methyl-1H-1,2,3-triazol-4-yl)pyridin-3-yl)oxy)cyclohexane-1-carboxylic acid] was run?
A: The IC50 was 58 nM.

Q: With `Cn1nnc(-c2ccc(O[C@H]3CCC[C@H](C(=O)O)C3)cn2)c1COC(=O)N1CCC2(CCC2)C1` [Example 175, (1S,3S)-3-((6-(5-(((6-azaspiro[3.4]octane-6-carbonyl)oxy)methyl)-1-methyl-1H-1,2,3-triazol-4-yl)pyridin-3-yl)oxy)cyclohexane-1-carboxylic acid] as the compound, how does the IC50 read?
A: The IC50 was 703 nM.

Q: With `Cn1nnc(-c2ccc(O[C@H]3CCC[C@H](C(=O)O)C3)cn2)c1COC(=O)N1CC2(CCC2)C1` [Example 176, (1S,3S)-3-((6-(5-(((2-azaspiro[3.3]heptane-2-carbonyl)oxy)methyl)-1-methyl-1H-1,2,3-triazol-4-yl)pyridin-3-yl)oxy)cyclohexane-1-carboxylic acid] as the compound, how does the IC50 read?
A: The IC50 was 400 nM.

Q: How did the IC50 turn out when `CC(C)=CCN(C)C(=O)OCc1c(-c2ccc(O[C@H]3CCC[C@H](C(=O)O)C3)c(C)n2)nnn1C` [Example 177, (1S,3S)-3-((2-methyl-6-(1-methyl-5-(((methyl(3-methylbut-2-en-1-yl)carbamoyl)oxy)methyl)-1H-1,2,3-triazol-4-yl)pyridin-3-yl)oxy)cyclohexane-1-carboxylic acid] was run?
A: Its IC50 is 21 nM.

Q: `Cc1nc(-c2nnn(C)c2COC(=O)N(C)C(C)(C)CF)ccc1O[C@H]1CCC[C@H](C(=O)O)C1` [Example 178, (1S,3S)-3-((6-(5-((((1-fluoro-2-methylpropan-2-yl)(methyl)carbamoyl)oxy)methyl)-1-methyl-1H-1,2,3-triazol-4-yl)-2-methyl-pyridin-3-yl)oxy)cyclohexane-1-carboxylic acid] was tested. Which IC50 did it give?
A: The IC50 was 156 nM.

Q: `Cc1nc(-c2nnn(C)c2COC(=O)N(C)C2CC3(CC3)C2)ccc1O[C@H]1CCC[C@H](C(=O)O)C1` [Example 179, (1S,3S)-3-((2-methyl-6-(1-methyl-5-(((methyl(spiro[2.3]hexan-5-yl)carbamoyl)oxy)methyl)-1H-1,2,3-triazol-4-yl)pyridin-3-yl)oxy)cyclohexane-1-carboxylic acid] was tested. Which IC50 did it give?
A: Its IC50 is 14 nM.

Q: With `CN(C(=O)OCc1c(-c2ccc(O[C@H]3CCC[C@H](C(=O)O)C3)cn2)nnn1C)C1CC2(CCC2)C1` [Example 180, (1S,3S)-3-((6-(1-methyl-5-(((methyl(spiro[3.3]heptan-2-yl)carbamoyl)oxy)methyl)-1H-1,2,3-triazol-4-yl)pyridin-3-yl)oxy)cyclohexane-1-carboxylic acid] as the compound, how does the IC50 read?
A: Its IC50 is 62 nM.

Same assay, conditions: read-out: hLPA1 IC50

Q: For `Cc1nc(-c2nnn(C)c2COC(=O)N2CCC3CCCC32)ccc1O[C@H]1CCC[C@H](C(=O)O)C1` (stereo partly drawn) [Example 149, (1S,3S)-3-((2-methyl-6-(1-methyl-5-(((octahydrocyclopenta[b]pyrrole-1-carbonyl)oxy)methyl)-1H-1,2,3-triazol-4-yl)pyridin-3-yl)oxy)cyclohexane-1-carboxylic acid], which IC50 is on record?
A: Its IC50 is 180 nM.

Q: Which IC50 does the source give for `Cc1nc(-c2nnn(C)c2COC(=O)N2CC(C)(C)C2)ccc1O[C@H]1CCC[C@H](C(=O)O)C1` [Example 155, (1S,3S)-3-((6-(5-(((3,3-dimethylazetidine-1-carbonyl)oxy)methyl)-1-methyl-1H-1,2,3-triazol-4-yl)-2-methylpyridin-3-yl)oxy)cyclohexane-1-carboxylic acid] here?
A: The IC50 was 175 nM.

Q: Which IC50 does the source give for `Cc1nc(-c2nnn(C)c2COC(=O)N2CC(C)C2)ccc1O[C@H]1CCC[C@H](C(=O)O)C1` [Example 156, (1S,3S)-3-((2-methyl-6-(1-methyl-5-(((3-methylazetidine-1-carbonyl)oxy)methyl)-1H-1,2,3-triazol-4-yl)pyridin-3-yl)oxy)cyclohexane-1-carboxylic acid] here?
A: The IC50 was 231 nM.
